# Test results from ChEMBL document CHEMBL5058649, “Data for DCP probe BAY 1816032” (2022).
# What was measured:
# [1] = target: Serine/threonine-protein kinase MARK1 (Homo sapiens) (UniProt Q9P0L2); test: MARK1 DiscoveRx kinase panel; conditions: Compound concentration 1.0 uM
# [2] = target: Mitogen-activated protein kinase 11 (Homo sapiens) (UniProt Q15759); test: p38-beta DiscoveRx kinase panel; conditions: Compound concentration 1.0 uM
# [3] = target: Alpha-1A adrenergic receptor (Homo sapiens) (UniProt P35348); conditions: Rattus norvegicus; Compound concentration 10.0 uM
# Chain of Alpha-1A adrenergic receptor (Homo sapiens) (P35348 whole entry): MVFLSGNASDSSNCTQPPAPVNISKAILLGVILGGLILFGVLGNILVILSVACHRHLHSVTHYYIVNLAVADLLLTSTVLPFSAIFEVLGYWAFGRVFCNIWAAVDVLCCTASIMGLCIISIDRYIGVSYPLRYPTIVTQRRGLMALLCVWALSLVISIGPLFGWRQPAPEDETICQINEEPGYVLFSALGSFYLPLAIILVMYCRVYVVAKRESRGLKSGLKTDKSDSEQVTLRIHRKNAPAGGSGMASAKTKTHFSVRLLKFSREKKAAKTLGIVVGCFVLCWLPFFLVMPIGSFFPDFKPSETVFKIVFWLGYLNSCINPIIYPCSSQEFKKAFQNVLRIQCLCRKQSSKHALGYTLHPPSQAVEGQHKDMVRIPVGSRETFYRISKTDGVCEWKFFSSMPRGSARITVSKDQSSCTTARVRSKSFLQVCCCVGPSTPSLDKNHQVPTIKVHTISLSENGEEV
# [4] = target: Serine/threonine-protein kinase B-raf (Homo sapiens) (UniProt P15056); test: BRAF DiscoveRx kinase panel; conditions: Compound concentration 1.0 uM
# Chain of Serine/threonine-protein kinase B-raf (Homo sapiens) (P15056 whole entry): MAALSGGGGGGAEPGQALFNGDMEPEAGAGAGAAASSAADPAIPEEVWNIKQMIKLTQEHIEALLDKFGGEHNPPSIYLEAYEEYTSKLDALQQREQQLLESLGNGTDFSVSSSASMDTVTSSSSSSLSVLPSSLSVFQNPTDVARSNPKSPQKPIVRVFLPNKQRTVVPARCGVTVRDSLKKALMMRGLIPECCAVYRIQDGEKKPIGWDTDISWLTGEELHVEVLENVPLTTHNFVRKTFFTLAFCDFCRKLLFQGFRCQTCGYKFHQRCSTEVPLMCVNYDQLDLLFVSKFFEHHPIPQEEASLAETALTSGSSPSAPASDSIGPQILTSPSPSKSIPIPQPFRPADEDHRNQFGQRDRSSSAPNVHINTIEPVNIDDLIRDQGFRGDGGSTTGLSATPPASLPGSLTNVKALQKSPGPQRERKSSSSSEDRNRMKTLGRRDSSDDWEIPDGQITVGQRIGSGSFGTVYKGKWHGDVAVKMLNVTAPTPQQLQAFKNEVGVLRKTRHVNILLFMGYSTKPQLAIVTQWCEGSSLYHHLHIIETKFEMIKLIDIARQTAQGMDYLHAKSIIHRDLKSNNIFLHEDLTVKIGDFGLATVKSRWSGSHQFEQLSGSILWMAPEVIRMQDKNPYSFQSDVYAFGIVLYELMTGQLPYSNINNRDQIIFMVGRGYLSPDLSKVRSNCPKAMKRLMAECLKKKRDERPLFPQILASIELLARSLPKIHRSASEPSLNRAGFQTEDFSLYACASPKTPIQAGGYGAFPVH
# [5] = target: Receptor tyrosine-protein kinase erbB-2 (Homo sapiens) (UniProt P04626); test: ERBB2 DiscoveRx kinase panel; conditions: Compound concentration 1.0 uM
# [6] = target: Mitogen-activated protein kinase 14 (Homo sapiens) (UniProt Q16539); test: p38-alpha DiscoveRx kinase panel; conditions: Compound concentration 1.0 uM
# [7] = target: Muscarinic acetylcholine receptor M1 (Homo sapiens) (UniProt P11229); test: Muscarinic M1 Eurofins-Panlabs radioligand binding assay; conditions: Compound concentration 10.0 uM
# [8] = target: Serine/threonine-protein kinase MARK2 (Homo sapiens) (UniProt Q7KZI7); test: MARK2 DiscoveRx kinase panel; conditions: Compound concentration 1.0 uM
# [9] = target: MAP/microtubule affinity-regulating kinase 4 (Homo sapiens) (UniProt Q96L34); test: MARK4 DiscoveRx kinase panel; conditions: Compound concentration 1.0 uM
# Chain of MAP/microtubule affinity-regulating kinase 4 (Homo sapiens) (Q96L34 whole entry): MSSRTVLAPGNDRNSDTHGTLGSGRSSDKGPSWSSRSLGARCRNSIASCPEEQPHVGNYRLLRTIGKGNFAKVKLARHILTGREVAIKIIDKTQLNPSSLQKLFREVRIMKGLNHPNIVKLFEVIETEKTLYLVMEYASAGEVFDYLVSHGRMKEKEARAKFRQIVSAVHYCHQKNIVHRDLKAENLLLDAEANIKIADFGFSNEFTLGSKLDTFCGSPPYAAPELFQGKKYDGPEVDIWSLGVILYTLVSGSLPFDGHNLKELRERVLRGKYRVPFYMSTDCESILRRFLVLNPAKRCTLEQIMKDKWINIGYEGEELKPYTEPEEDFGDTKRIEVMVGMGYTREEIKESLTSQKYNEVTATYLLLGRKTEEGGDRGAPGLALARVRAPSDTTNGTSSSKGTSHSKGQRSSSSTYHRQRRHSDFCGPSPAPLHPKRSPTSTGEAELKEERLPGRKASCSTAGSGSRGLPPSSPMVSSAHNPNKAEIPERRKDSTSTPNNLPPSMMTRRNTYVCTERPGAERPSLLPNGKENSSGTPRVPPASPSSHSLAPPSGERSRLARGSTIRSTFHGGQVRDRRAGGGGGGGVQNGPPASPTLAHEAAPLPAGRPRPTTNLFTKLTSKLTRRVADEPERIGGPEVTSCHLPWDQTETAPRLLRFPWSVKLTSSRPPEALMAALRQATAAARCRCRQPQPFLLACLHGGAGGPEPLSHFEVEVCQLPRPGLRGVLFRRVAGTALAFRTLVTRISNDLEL
# [10] = target: Melanocortin receptor 4 (Homo sapiens) (UniProt P32245); test: Melanocortin MC4 Eurofins-Panlabs radioligand binding assay; conditions: Compound concentration 10.0 uM
# [11] = target: Dual specificity mitogen-activated protein kinase kinase 5 (Homo sapiens) (UniProt Q13163); test: MEK5 DiscoveRx kinase panel; conditions: Compound concentration 1.0 uM
# [12] = target: Tyrosine-protein kinase TXK (Homo sapiens) (UniProt P42681); test: TXK DiscoveRx kinase panel; conditions: Compound concentration 1.0 uM
# Chain of Tyrosine-protein kinase TXK (Homo sapiens) (P42681 whole entry): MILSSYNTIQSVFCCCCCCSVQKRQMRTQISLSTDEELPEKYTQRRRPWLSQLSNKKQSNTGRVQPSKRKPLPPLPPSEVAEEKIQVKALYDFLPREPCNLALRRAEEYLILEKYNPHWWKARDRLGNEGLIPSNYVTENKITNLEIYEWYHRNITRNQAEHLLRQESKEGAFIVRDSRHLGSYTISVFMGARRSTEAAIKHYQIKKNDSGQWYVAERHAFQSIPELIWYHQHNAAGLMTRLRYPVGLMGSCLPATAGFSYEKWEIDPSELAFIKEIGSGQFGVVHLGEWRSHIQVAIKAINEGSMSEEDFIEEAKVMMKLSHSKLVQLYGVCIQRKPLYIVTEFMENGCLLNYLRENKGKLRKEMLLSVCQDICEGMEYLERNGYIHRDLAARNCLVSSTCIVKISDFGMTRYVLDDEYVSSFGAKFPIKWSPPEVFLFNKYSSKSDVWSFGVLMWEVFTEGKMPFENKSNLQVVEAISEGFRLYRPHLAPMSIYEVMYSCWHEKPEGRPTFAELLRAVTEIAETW
# Caco-2 = test: Caco2 cell line Proliferation assay; format: functional, Homo sapiens; conditions: time 4 day
# [13] = target: Muscarinic acetylcholine receptor M5 (Homo sapiens) (UniProt P08912); conditions: Compound concentration 10.0 uM
# [14] = target: 5-hydroxytryptamine receptor 2B (Homo sapiens) (UniProt P41595); conditions: Compound concentration 10.0 uM
# [15] = target: Cyclin-dependent kinase 7 (Homo sapiens) (UniProt P50613); test: CDK7 DiscoveRx kinase panel; conditions: Compound concentration 1.0 uM
# [16] = target: Death-associated protein kinase 1 (Homo sapiens) (UniProt P53355); test: DAPK1 DiscoveRx kinase panel; conditions: Compound concentration 1.0 uM
# [17] = target: Ephrin type-A receptor 3 (Homo sapiens) (UniProt P29320); test: EPHA3 DiscoveRx kinase panel; conditions: Compound concentration 1.0 uM
# [18] = target: 5-hydroxytryptamine receptor 1A (Homo sapiens, UniProt P08908); test: GPCRScan assay: inhibition of 5-HT1A; design: radioligand conc. used [nm] 0.5 – 1.0, parental cells stable CHO
# [19] = target: Serine/threonine-protein kinase DCLK2 (Homo sapiens) (UniProt Q8N568); test: DCAMKL2 DiscoveRx kinase panel; conditions: Compound concentration 1.0 uM
# Chain of Serine/threonine-protein kinase DCLK2 (Homo sapiens) (Q8N568 whole entry): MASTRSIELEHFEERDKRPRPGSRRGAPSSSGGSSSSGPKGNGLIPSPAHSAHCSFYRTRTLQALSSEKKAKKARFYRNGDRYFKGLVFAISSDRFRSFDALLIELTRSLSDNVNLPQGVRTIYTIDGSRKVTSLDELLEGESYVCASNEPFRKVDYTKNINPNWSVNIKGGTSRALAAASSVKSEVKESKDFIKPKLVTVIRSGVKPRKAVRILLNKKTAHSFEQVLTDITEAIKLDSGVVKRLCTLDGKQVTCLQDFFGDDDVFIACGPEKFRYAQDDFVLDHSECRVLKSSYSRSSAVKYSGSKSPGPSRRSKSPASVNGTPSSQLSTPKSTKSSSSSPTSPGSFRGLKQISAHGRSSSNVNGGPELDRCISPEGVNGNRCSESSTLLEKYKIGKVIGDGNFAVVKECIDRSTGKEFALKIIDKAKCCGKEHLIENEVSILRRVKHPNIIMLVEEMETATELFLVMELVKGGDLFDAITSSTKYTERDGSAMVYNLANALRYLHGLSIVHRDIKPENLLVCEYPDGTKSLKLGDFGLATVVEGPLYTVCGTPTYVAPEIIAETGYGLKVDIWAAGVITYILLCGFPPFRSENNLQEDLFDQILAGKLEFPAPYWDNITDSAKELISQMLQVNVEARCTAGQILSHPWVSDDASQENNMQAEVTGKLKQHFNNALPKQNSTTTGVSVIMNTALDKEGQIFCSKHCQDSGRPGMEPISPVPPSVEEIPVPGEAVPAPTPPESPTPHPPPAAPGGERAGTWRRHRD
# [20] = target: Membrane-associated tyrosine- and threonine-specific cdc2-inhibitory kinase (Homo sapiens) (UniProt Q99640); test: PKMYT1 DiscoveRx kinase panel; conditions: Compound concentration 1.0 uM
# [21] = target: Protein-tyrosine kinase 6 (Homo sapiens) (UniProt Q13882); test: BRK DiscoveRx kinase panel; conditions: Compound concentration 1.0 uM
# [22] = target: Receptor tyrosine-protein kinase erbB-3 (Homo sapiens) (UniProt P21860); test: ERBB3 DiscoveRx kinase panel; conditions: Compound concentration 1.0 uM
# [23] = target: Calcium/calmodulin-dependent protein kinase kinase 1 (Homo sapiens) (UniProt Q8N5S9); test: CAMKK1 DiscoveRx kinase panel; conditions: Compound concentration 1.0 uM
# [24] = target: Serine/threonine-protein kinase 32B (Homo sapiens) (UniProt Q9NY57); test: YANK2 DiscoveRx kinase panel; conditions: Compound concentration 1.0 uM
# Chain of Serine/threonine-protein kinase 32B (Homo sapiens) (Q9NY57 whole entry): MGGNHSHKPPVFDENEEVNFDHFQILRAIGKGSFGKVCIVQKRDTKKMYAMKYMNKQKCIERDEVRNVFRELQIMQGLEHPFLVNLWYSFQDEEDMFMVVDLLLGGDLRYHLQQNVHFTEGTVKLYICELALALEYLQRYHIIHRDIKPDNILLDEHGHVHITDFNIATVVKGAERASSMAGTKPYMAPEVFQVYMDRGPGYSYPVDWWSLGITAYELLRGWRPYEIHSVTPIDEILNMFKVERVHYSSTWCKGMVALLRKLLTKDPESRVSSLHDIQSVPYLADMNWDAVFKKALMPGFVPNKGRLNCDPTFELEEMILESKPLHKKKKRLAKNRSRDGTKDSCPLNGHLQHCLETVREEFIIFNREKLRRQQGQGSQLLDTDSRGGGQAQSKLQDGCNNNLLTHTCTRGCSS
# [25] = target: Delta-type opioid receptor (Homo sapiens) (UniProt P41143); conditions: Compound concentration 10.0 uM
# [26] = target: Ephrin type-A receptor 2 (Homo sapiens) (UniProt P29317); test: EPHA2 DiscoveRx kinase panel; conditions: Compound concentration 1.0 uM
# [27] = target: STE20-like serine/threonine-protein kinase (Homo sapiens) (UniProt Q9H2G2); test: SLK DiscoveRx kinase panel; conditions: Compound concentration 1.0 uM
# [28] = target: Calcium/calmodulin-dependent protein kinase type II subunit gamma (Homo sapiens) (UniProt Q13555); test: CAMK2G DiscoveRx kinase panel; conditions: Compound concentration 1.0 uM
# [29] = target: Dual specificity protein kinase CLK1 (Homo sapiens) (UniProt P49759); test: CLK1 DiscoveRx kinase panel; conditions: Compound concentration 1.0 uM
# [30] = target: L-type calcium channel, benzothiazepine site (Cav1.2 alpha-1C) (Homo sapiens, UniProt Q13936); test: Inhibition of Calcium Channel L-Type, Benzothiazepine at 10 µM in the Eurofins-Panlabs radioligand binding assay (Eurofins_assay_214510); design: ligand concentration 2 nM, non-specific ligand with concentration 10 µM Diltiazem, incubation time 3h, incubation temperature 4 °C; conditions: male, Wistar, rat, rat whole brain preparation, probe [3H] Diltiazem; compound concentration 10 uM; target entry is the homologue from another species
# [31] = target: Gamma-aminobutyric acid type B receptor subunit 1 (Homo sapiens) (UniProt Q9UBS5); test: Inhibition of GABAB1A at compound concentration of 10.0 uM in the Eurofins-Panlabs radioligand binding assay (Eurofins_assay_228610); design: ligand concentration 4 nM; conditions: Compound concentration 10.0 uM
# [32] = target: Tyrosine-protein kinase Lyn (Homo sapiens) (UniProt P07948); test: LYN DiscoveRx kinase panel; conditions: Compound concentration 1.0 uM
# Chain of Tyrosine-protein kinase Lyn (Homo sapiens) (P07948 2-512 limits assumed): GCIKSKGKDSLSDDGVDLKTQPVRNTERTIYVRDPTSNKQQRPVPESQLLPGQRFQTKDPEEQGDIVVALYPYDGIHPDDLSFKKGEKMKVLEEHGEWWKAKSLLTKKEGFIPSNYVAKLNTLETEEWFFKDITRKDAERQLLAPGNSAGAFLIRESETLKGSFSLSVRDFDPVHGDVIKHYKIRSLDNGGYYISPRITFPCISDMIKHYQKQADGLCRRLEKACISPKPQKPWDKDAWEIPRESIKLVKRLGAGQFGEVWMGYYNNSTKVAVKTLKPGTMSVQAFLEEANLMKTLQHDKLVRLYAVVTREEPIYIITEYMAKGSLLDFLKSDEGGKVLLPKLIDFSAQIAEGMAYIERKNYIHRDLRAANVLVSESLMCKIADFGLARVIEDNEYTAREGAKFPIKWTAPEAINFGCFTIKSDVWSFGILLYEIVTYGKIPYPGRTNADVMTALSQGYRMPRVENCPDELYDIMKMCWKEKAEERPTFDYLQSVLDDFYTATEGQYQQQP
# [33] = target: Serine/threonine-protein kinase ULK1 (Homo sapiens) (UniProt O75385); test: ULK1 DiscoveRx kinase panel; conditions: Compound concentration 1.0 uM
# [34] = target: Tyrosine-protein kinase receptor TYRO3 (Homo sapiens) (UniProt Q06418); test: TYRO3 DiscoveRx kinase panel; conditions: Compound concentration 1.0 uM
# [35] = target: Ribosomal protein S6 kinase beta-1 (Homo sapiens) (UniProt P23443); test: S6K1 DiscoveRx kinase panel; conditions: Compound concentration 1.0 uM
# Chain of Ribosomal protein S6 kinase beta-1 (Homo sapiens) (P23443 whole entry, looked up): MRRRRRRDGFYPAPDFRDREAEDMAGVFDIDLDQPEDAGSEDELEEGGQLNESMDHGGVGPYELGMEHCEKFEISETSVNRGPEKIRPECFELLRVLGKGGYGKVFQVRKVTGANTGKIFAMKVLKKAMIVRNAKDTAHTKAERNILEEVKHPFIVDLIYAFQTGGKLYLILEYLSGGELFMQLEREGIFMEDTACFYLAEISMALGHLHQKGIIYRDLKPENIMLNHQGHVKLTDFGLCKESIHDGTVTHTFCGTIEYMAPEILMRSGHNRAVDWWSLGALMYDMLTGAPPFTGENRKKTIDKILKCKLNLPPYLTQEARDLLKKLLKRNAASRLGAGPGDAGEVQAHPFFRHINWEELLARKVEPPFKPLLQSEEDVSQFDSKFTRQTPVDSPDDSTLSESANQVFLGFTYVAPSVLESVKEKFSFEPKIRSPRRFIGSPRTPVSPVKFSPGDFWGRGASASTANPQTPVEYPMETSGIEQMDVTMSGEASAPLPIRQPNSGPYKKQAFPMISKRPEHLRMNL
# [36] = target: Serine/threonine-protein kinase Chk1 (Homo sapiens) (UniProt O14757); test: CHEK1 DiscoveRx kinase panel; conditions: Compound concentration 1.0 uM
# [37] = target: Dual specificity protein kinase CLK4 (Homo sapiens) (UniProt Q9HAZ1); test: CLK4 DiscoveRx kinase panel; conditions: Compound concentration 1.0 uM
# [38] = target: Protein-tyrosine kinase 2-beta (Homo sapiens) (UniProt Q14289); test: PYK2 DiscoveRx kinase panel; conditions: Compound concentration 1.0 uM
# [39] = target: Beta-1 adrenergic receptor (Homo sapiens) (UniProt P08588); conditions: Compound concentration 10.0 uM
# [40] = target: Mitogen-activated protein kinase kinase kinase 10 (Homo sapiens) (UniProt Q02779); test: MLK2 DiscoveRx kinase panel; conditions: Compound concentration 1.0 uM
# [41] = target: Serine/threonine-protein kinase 4 (Homo sapiens) (UniProt Q13043); test: MST1 DiscoveRx kinase panel; conditions: Compound concentration 1.0 uM
# [42] = target: Serine/threonine-protein kinase/endoribonuclease IRE1 (Homo sapiens) (UniProt O75460); test: ERN1 DiscoveRx kinase panel; conditions: Compound concentration 1.0 uM
# [43] = target: RAC-beta serine/threonine-protein kinase (Homo sapiens) (UniProt P31751); test: AKT2 DiscoveRx kinase panel; conditions: Compound concentration 1.0 uM
# Rattus norvegicus = species: Rattus norvegicus; test: Glutamate, NMDA, Polyamine Eurofins-Panlabs radioligand binding assay; format: protein-complex assay; design: ligand concentration 2 nM; conditions: Compound concentration 10.0 uM
# [44] = target: 1-phosphatidylinositol 3-phosphate 5-kinase (Homo sapiens) (UniProt Q9Y2I7); test: PIKFYVE DiscoveRx kinase panel; conditions: Compound concentration 1.0 uM
# [45] = target: Serine/threonine-protein kinase haspin (Homo sapiens) (UniProt Q8TF76); test: HASPIN DiscoveRx kinase panel; conditions: Compound concentration 1.0 uM
# [46] = target: Calcium/calmodulin-dependent protein kinase type 1D (Homo sapiens) (UniProt Q8IU85); test: CAMK1D DiscoveRx kinase panel; conditions: Compound concentration 1.0 uM
smiles,measurement,setting,value
COc1cnccc1Nc1nc(-c2nn(Cc3c(F)cc(OCCO)cc3F)c3ccccc23)ncc1OC,residual activity,[1],97%
same,residual activity,[2],82%
same,inhibition,[3],8%
same,residual activity,[4],99%
same,residual activity,[5],100%
same,residual activity,[6],100%
same,inhibition,[7],32%
same,residual activity,[8],67%
same,residual activity,[9],100%
same,inhibition,[10],10%
same,residual activity,[11],71%
same,residual activity,[12],64%
same,Cell Proliferation IC50,Caco-2,1 µM
same,inhibition,[13],8.89%
same,inhibition,[14],22%
same,residual activity,[15],100%
same,residual activity,[16],100%
same,residual activity,[17],85%
same,Ki,[18],9.44 µM
same,residual activity,[19],90%
same,residual activity,[20],100%
same,residual activity,[21],91%
same,residual activity,[22],70%
same,residual activity,[23],100%
same,residual activity,[24],82%
same,inhibition,[25],-6%
same,residual activity,[26],100%
same,residual activity,[27],100%
same,residual activity,[28],100%
same,residual activity,[29],100%
same,"inhibition at 3 h, 10 µM",[30],-10% (not active)
same,inhibition,[31],-2%
same,residual activity,[32],100%
same,residual activity,[33],90%
same,residual activity,[34],56%
same,residual activity,[35],100%
same,residual activity,[36],93%
same,residual activity,[37],83%
same,residual activity,[38],95%
same,inhibition,[39],4%
same,residual activity,[40],76%
same,residual activity,[41],100%
same,residual activity,[42],100%
same,residual activity,[43],88%
same,inhibition,Rattus norvegicus,0%
same,residual activity,[44],88%
same,residual activity,[45],100%
same,residual activity,[46],83%
